Laboratory results from patent US6355633B1, “Aryl sulfonic acids and derivatives as FSH antagonists” (American Home Products Corporation, priority 1999, dated 2002).

What follows are compounds tested against T1, FSH receptor (Homo sapiens, UniProt P23945) (assay: FSH Receptor Radioligand Membrane Binding Standard Pharmacological Test Procedure). Settings: [125I]FSH binding to membranes of CHO cells stably transfected with the human FSH receptor.
T1 sequence (P23945 18-695): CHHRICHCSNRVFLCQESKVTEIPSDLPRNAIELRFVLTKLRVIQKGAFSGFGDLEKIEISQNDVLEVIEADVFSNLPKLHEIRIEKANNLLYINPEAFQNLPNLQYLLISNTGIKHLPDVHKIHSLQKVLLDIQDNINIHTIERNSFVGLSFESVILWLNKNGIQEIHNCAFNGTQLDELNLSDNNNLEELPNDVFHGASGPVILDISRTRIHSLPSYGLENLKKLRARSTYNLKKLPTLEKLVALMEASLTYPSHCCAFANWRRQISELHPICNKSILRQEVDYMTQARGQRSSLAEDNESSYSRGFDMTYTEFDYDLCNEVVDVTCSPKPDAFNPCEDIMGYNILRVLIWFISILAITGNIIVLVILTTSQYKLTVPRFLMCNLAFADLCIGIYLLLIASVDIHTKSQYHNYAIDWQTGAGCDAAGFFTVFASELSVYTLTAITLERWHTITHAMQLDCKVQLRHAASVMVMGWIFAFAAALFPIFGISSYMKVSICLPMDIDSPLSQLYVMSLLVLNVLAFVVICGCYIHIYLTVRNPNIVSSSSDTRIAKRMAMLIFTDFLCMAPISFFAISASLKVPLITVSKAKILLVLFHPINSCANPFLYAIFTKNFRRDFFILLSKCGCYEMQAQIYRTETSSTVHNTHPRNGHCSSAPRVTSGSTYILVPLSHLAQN
Set-up: expressed in transfected cells
Procedure: FSH Receptor Radioligand Membrane Binding Standard Pharmacological Test Procedure
Membrane Source: Chinese hamster ovarian cells stably transfected with the human FSH receptor were cultured (Ultra CHO medium containing 1% fetal bovine serum and 200 μg/mL G418) in and harvested. Cells were collected by centrifugation and resulting cell pellets were frozen and stored at −70° C.
Membrane Receptor Preparation: Frozen cell pellets were weighed and resuspended in binding buffer to a final concentration of 30 mg wet weight/mL. Cell suspension for each pellet was homogenized using a Tempest homogenizer (setting=1; 5 strokes; VirTis, Gardiner, N.Y.). Cell homogenates were pooled and 35 mL aliquots were transferred to 50-mL polypropylene copolymer centrifuge tubes (Nalgene cat. #3110-0500). Tubes were spun at 12,000 rpm (SS34 rotor) for 12 min at 4° C. Resulting supernatant fractions were discarded and pellets were stored at −70° C. until use. On the day of the procedure, 35 mL binding buffer was added to each tube (35 mL membrane suspension was sufficient for three 96-well plates). The membrane pellet was dispersed by trituration using a pipet. The resulting suspension wass homogenized using a Tempest homogenizer (3 strokes at setting=1).
Receptor Binding Test procedure: Membrane homogenate (100 μl) was added to each well of a 96-well microtiter plate (Falcon # 3077). All reactions were tested in triplicate. Test compound solutions (50 μl) were added to the designated wells. Total bound counts were determined by adding 50 μl binding buffer containing 4% DMSO to the designated wells. […] Plates were pre-incubated for 15 min at room temperature on shaking platform (setting=3). After preincubation [^125I]FSH (50 μl) was added to each well and plates were incubated for 2 h at room temperature on shaking platform (setting=3). The reaction was terminated by transfer of the membrane preparation to glass fiber filters (Blue Mat #11740; 102×256 mm; Skatron Instruments, Sterling, Va.) that had been pretreated with 1% BSA in wash buffer for at least 30 min, but not longer than 1 h using a 96-well microtiter vacuum harvester (Skatron Instruments). The membrane preparation was washed with 5 cycles of ice-cold wash buffer (200 μl/well/cycle) followed by a pulse wash of 3 cycles (100 μl/well/cycle). The total wash volume per well was 1.3 mL. The filters were dried by a 10 sec aspiration. Disks corresponding to each well of the microtiter plate were punched out of the filter mat into 12×75 mm polypropylene tubes. The radioactivity present on each of the disks was measured using a gamma counter.
An FSH dose response curve (0.001, 0.01, 0.1, 1, 10, and 100 nM) was generated for each binding procedure to monitor procedure to procedrue variability.
FSH Receptor Radioligand Membrane Binding Procedure Buffers and Reagents
Binding buffer is prepared in 11 volumes containing Trizma-HCl, MgCl2, CaCl2 and sodium azide, the pH was adjusted to 7.2 with NaOH, and stored at 4° C. until use. BSA was weighed out on the day of the procedure and added to the amount of buffer required for the procedure (usually 150 mL). The protease inhibitors were prepared as 1 mg/mL stocks (aprotinin, leupeptin, and phosphoramidon were prepared in binding buffer without BSA and protease inhibitors; pepstatin and PMSF were prepared in methanol), stored in 1 mL aliquots at −70° C., and added to the binding buffer on the day of the procedure.
Wash buffer was prepared containing Trizma-HCl, MgCl2 and EDTA, the pH was adjusted to 7.2 with NaOH, and stored at 4° C.
Filter Soak Buffer (pH 7.2)
BSA was weighed out on the day of the procedure and added to 300 mL of wash buffer. The filter soak buffer was used for two procedures before being discarded.
A portion of the stock solution was diluted in binding buffer to a concentration of 200 pM.
FSH Solution for Determining Non-specific Binding: Purified human FSH was prepared as a 100 μM solution in binding buffer without protease inhibitors. […]

| IC50 | SMILES |
| --- | --- |
| 7.3 µM | COc1ccc(C(=O)Nc2ccc(/C=C/c3ccc(NC(=O)c4ccc(OC)c(S(=O)(=O)N5CCCCC5)c4)cc3S(=O)(=O)O)c(S(=O)(=O)O)c2)cc1S(=O)(=O)N1CCCCC1 [Example 30h, 2,2′-[(E)-1,2-Ethenediyl]bis[5-[[4-methoxy-3-(1-piperidinylsulfonyl)benzoyl]amino]benzenesulfonic Acid]] |
| 21 µM | O=C(O)CS(=O)(=O)c1cccc(C(=O)Nc2ccc(C=Cc3ccc(NC(=O)c4cccc(S(=O)(=O)CC(=O)O)c4)cc3S(=O)(=O)O)c(S(=O)(=O)O)c2)c1 [Example 36b, [3-(4-{2-[4-(3-Carboxymethanesulfonyl-benzoylamino)-2-sulfo-phenyl]-vinyl}-3-sulfo-phenylcarbamoyl)-benzenesulfonyl]-acetic Acid] |
| 6.7 µM | O=C(CS(=O)(=O)c1cccc(C(=O)Nc2ccc(/C=C/c3ccc(NC(=O)c4cccc(S(=O)(=O)CC(=O)NCCO)c4)cc3S(=O)(=O)O)c(S(=O)(=O)O)c2)c1)NCCO [Example 37c, 5-[[3-[[2-[(2-Hydroxyethyl)amino]-2-oxoethyl]sulfonyl]benzoyl]amino]-2-[(E)-2-[4-[[3-[[2-[(2-hydroxyethyl)amino]-2-oxoethyl]sulfonyl]benzoyl]amino]-2-sulfo-phenyl]ethenyl]benzenesulfonic Acid] |
| 4.3 µM | NC(=O)CS(=O)(=O)c1cccc(C(=O)Nc2ccc(/C=C/c3ccc(NC(=O)c4cccc(S(=O)(=O)CC(N)=O)c4)cc3S(=O)(=O)O)c(S(=O)(=O)O)c2)c1 [Example 37d, 5-[[3-[(2-Amino-2-oxoethyl)sulfonyl]benzoyl]amino]-2-[(E)-2-[4-[[3-[(2-amino-2-oxoethyl)sulfonyl]benzoyl]amino]-2-sulfophenyl]ethenyl]-benzenesulfonic Acid] |
| 6.2 µM | COCCOc1ccc(C(=O)Nc2ccc(/C=C/c3ccc(NC(=O)c4ccc(S(C)(=O)=O)cc4)cc3S(=O)(=O)O)c(S(=O)(=O)O)c2)cc1 [Example 40a, 5-[[4-(2-Methoxyethoxy)benzoyl]amino]-2-[(E)-2-[4-[[4-(methanesulfonyl)benzoyl]amino]-2-sulfophenyl]ethenyl]benzenesulfonic Acid] |
| 5.2 µM | CS(=O)(=O)Cc1ccc(C(=O)Nc2ccc(/C=C/c3ccc(NC(=O)c4ccc(S(C)(=O)=O)cc4)cc3S(=O)(=O)O)c(S(=O)(=O)O)c2)cc1 [Example 40b, 5-[[4-(Methylsulfonyl)benzoyl]amino]-2-[(E)-2-[4-[[4-[(methylsulfonyl)methyl]benzoyl]amino]-2-sulfophenyl]ethenyl]benzenesulfonic Acid] |
| 4.5 µM | COc1ccc(C(=O)Nc2ccc(CCc3ccc(NC(=O)c4ccc(OC)c(S(=O)(=O)N5CCS(=O)(=O)CC5)c4)cc3S(=O)(=O)O)c(S(=O)(=O)O)c2)cc1S(=O)(=O)N1CCS(=O)(=O)CC1 [Example 43c, 2,2′-(1,2-Ethanediyl)bis[5-[[3-[(1,1-dioxido-4-thiomorpholinyl)sulfonyl]-4-methoxybenzoyl]amino]benzenesulfonic Acid]] |
| 4.3 µM | CS(=O)(=O)c1ccc(C(=O)Nc2ccc(CCc3ccc(NC(=O)c4ccc(S(C)(=O)=O)cc4)cc3S(=O)(=O)O)c(S(=O)(=O)O)c2)cc1 [Example 43e] |
| 34 µM | COc1ccc(C(=O)Nc2ccc(CSCc3ccc(NC(=O)c4ccc(OC)c(S(=O)(=O)N5CCOCC5)c4)cc3S(=O)(=O)O)c(S(=O)(=O)O)c2)cc1S(=O)(=O)N1CCOCC1 [Example 50a, 2,2′-[Thiobis(methylene)]bis[5-[[4-methoxy-3-(4-morpholinylsulfonyl)benzoyl]amino]benzenesulfonic Acid]] |
| 41 µM | COc1ccc(C(=O)Nc2ccc(CS(=O)(=O)Cc3ccc(NC(=O)c4ccc(OC)c(S(=O)(=O)N5CCOCC5)c4)cc3S(=O)(=O)O)c(S(=O)(=O)O)c2)cc1S(=O)(=O)N1CCOCC1 [Example 50b, 2,2′-[Sulfonylbis(methylene)]bis[5-[[4-methoxy-3-(4-morpholinylsulfonyl)benzoyl]amino]benzenesulfonic acid]] |
| 16 µM | CSc1ccc(C(=O)Nc2ccc(C=Cc3ccc(NC(=O)c4ccc(SC)c(S(=O)(=O)N5CCOCC5)c4)cc3S(=O)(=O)O)cc2)cc1S(=O)(=O)N1CCOCC1 [Example 59, 5-[4-Methylsulfanyl-3-(morpholine-4-sulfonyl)-benzoylamino]-2-(2-{[4-methylsulfanyl-3-(morpholine-4-sulfonyl)-benzoylamino]-phenyl}-vinyl)-benzenesulfonic Acid] |

What follows are compounds tested against T1, FSH receptor (assay: In Vitro Bio-test Procedure of Agonists and Antagonists to the FSH Receptor (cAMP accumulation in CHO-3D2 cells)). Settings: not given.
Type: cell-based
Set-up: expressed in transfected cells; host or cells: CHO-3D2 cells
Procedure: In Vitro Bio-test Procedure of Agonists and Antagonists to the FSH Receptor
The compounds were subsequently diluted in sterile procedure medium (Optimem (Gibco/BRL, Grand Island, N.Y.)/0.1% BSA) prior to use in the bio-procedure.
Preparation of CHO-3D2 Cells; CHO-3D2 cells were plated into 96-well Nunc tissue culture plates at a density of 30,000 cells/well in DMEM/F12 medium (Gibco/BRL, Grand Island, N.Y.) supplemented with 5% Fetal Bovine Serum (Hyclone, Fetal Clone II), 2 mM L-glutamine and penicillin/streptomycin (100 U/mL). Cells were plated one day prior to performing the bio-procedure.
Procedure: On the day of procedure, the wells were washed two times with 100 ul/well of pre-warmed (37 deg C.) procedure medium. After aspirating the second wash, an additional 100 ul of procedure medium was added to each well and the cells pre-incubated for 30-45 minutes at 37 deg C. In a humidified incubator with 5%CO2/95% air. The cells were then challenged with varying dilutions of the test substance(s) in a 50 ul total incubation volume in procedure medium for 30 minutes at 37 deg C. in the humidified incubator. The challenge was terminated by the addition of 50 ul of 0.2 N HCl to each well. CAMP accumulation in the medium was measured by radioimmunoassay.
Test Groups: In the 96-well format, the plate is organized into 12 columns each containing 8 rows of wells. The plate was split in half to test a single compound in both agonist and antagonist mode on the same plate.
For agonist mode, compounds were tested using 5 different concentrations in a dose-response paradigm using one column as a control (challenge medium alone) in agonist mode.
The 96-well format allowed for the capability to test 4 columns of compound, using one of the remaining columns for negative control (challenge medium alone) and the other remaining column for ampositive control (ED20 of FSH alone).
The doses chosen to test each compound were extrapolated from the initial screening process (receptor binding data). Along with the test compounds, FSH was run in agonist mode using doses ranging from 0.1 ng/mL-1000 ng/mL as a postive control. Cytotoxicity of the compounds were screened by treating cells with the highest concentration of each compound used in the cAMP procedure for 30 minutes followed by washing of the cells 2 times with 100 ul PBS. The cells were then incubated for 5 min at 37 deg C. in the presence of 50 ug/mL Fluorescein diacetate and 20 ug/mL Propidium iodide in 100 ul PBS. The cells were washed two times with 100 ul PBS followed by examination of the cells under a fluorescence microscope using a 490 nm filter. Viable cells stained green throughout, while dead cells had red fluorescent nuclei.
Analysis of Results: cAMP accumulation was expressed as fmol/mL. […] Data were analyzed statistically by analysis of variance and significant differences between treatments and control determined by Dunnett's test. In antagonist mode, a Duncan's test was used.
Reference Compounds: Test compounds were compared to the effect of purified or recombinant human FSH.

| IC50 | SMILES |
| --- | --- |
| 8.1 µM | COc1ccc(C(=O)Nc2ccc(/C=C/c3ccc(NC(=O)c4ccc(OC)c(S(=O)(=O)N5CCCCC5)c4)cc3S(=O)(=O)O)c(S(=O)(=O)O)c2)cc1S(=O)(=O)N1CCCCC1 [Example 30h, 2,2′-[(E)-1,2-Ethenediyl]bis[5-[[4-methoxy-3-(1-piperidinylsulfonyl)benzoyl]amino]benzenesulfonic Acid]] |
